Data reported in the supplement of paper PMC10627819.

Key:
S. pneumoniae D39V [1] = experiment: fitness (endpoint OD595 vs no drug) (fraction); higher = more growth
Summary of the method: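 With the first reading as background, OD595 was measured every 30 min for 14 h in 384-well plates kept at 37 °C and inoculated at OD595 0.01. TSB, LB Lennox or CY was the medium. Fitness is the optical density at the transition into stationary phase divided by the robust mean of no-drug control wells, with a cap of 1.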

B. subtilis 168 = experiment: Bliss interaction score (quartile over a dose matrix) (fitness difference); higher = more antagonism (negative = synergy)
Summary of the method: (§1)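 The Bliss score is observed fitness minus expected fitness, where the expected value is the product of single-drug fitness values inferred from combination data. Fitness is OD595 at entry into stationary phase normalised to the plate's robust no-drug mean and capped at 1. Scores are reported as quartiles spanning technical, biological and donor/recipient replicates.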

S. aureus DSM 20231 = experiment: as above
Summary of the method: as §1

S. aureus Newman = experiment: as above
Summary of the method: as §1

S. pneumoniae D39V [2] = experiment: as above
Summary of the method: as §1
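Wherever Bliss interaction score (quartile over a dose matrix) is given: first quartile when negative (synergy) and third quartile when positive (antagonism).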
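Wherever fitness (endpoint OD595 vs no drug) is given: OD595 on entry to stationary phase over no-drug wells; at most 1.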

C[C@@H](O)[C@H]1C(=O)N2C(C(=O)O)=C(SCCNC=N)C[C@H]12 [Imipenem] + COc1ccc(C[C@H](N)C(=O)N[C@H]2[C@@H](O)[C@H](n3cnc4c(N(C)C)ncnc43)O[C@@H]2CO)cc1 [Puromycin]
fitness, S. pneumoniae D39V [1], one replicate
Conditions | first compound 0.005 µg/mL | first compound 0.01 µg/mL | first compound 0.02 µg/mL
partner 1 µg/mL | 0.896 | 0.955 | 0.973
partner 2 µg/mL | 0.931 | 0.954 | 0.941
partner 4 µg/mL | 0.729 | 0.791 | 0.759

fitness, S. pneumoniae D39V [1]
Conditions | first compound 0.0065 µg/mL | first compound 0.013 µg/mL | first compound 0.026 µg/mL
partner 1 µg/mL | 0.992 | 0.989 | 0.964
partner 2 µg/mL | 0.96 | 0.886 | 0.906
partner 4 µg/mL | 0.748 | 0.783 | 0.739

Conditions | Bliss interaction score
B. subtilis 168 | 0.0681
S. aureus DSM 20231 | 0.0683
S. aureus Newman | -0.0481
S. pneumoniae D39V [2] | 0.0871

CCC[C@@H]1C[C@@H](C(=O)N[C@@H]([C@H]2O[C@H](SC)[C@H](O)[C@@H](O)[C@H]2O)[C@H](C)Cl)N(C)C1 [Clindamycin] + Clc1ccc(COC(Cn2ccnc2)c2ccc(Cl)cc2Cl)c(Cl)c1 [Miconazole]
S. pneumoniae D39V [1]
Conditions | fitness
first compound 0.0125 µg/mL, partner 1.25 µg/mL | 0.688
first compound 0.0125 µg/mL, partner 2.5 µg/mL | 0.758
first compound 0.0125 µg/mL, partner 5 µg/mL | 0.761
first compound 0.015 µg/mL, partner 1.073 µg/mL | 0.944
first compound 0.015 µg/mL, partner 2.145 µg/mL | 0.945
first compound 0.015 µg/mL, partner 4.29 µg/mL | 0.906
first compound 0.025 µg/mL, partner 1.25 µg/mL | 0.433
first compound 0.025 µg/mL, partner 2.5 µg/mL | 0.485
first compound 0.025 µg/mL, partner 5 µg/mL | 0.444
first compound 0.03 µg/mL, partner 1.073 µg/mL | 0.772
first compound 0.03 µg/mL, partner 2.145 µg/mL | 0.777
first compound 0.03 µg/mL, partner 4.29 µg/mL | 0.665
first compound 0.05 µg/mL, partner 1.25 µg/mL | 0.213
first compound 0.05 µg/mL, partner 2.5 µg/mL | 0.235
first compound 0.05 µg/mL, partner 5 µg/mL | 0.252
first compound 0.06 µg/mL, partner 4.29 µg/mL | 0.33

Conditions | Bliss interaction score
B. subtilis 168 | 0.0322
S. aureus DSM 20231 | -0.0342
S. aureus Newman | -0.0596
S. pneumoniae D39V [2] | -0.0991

CC[C@H]1OC(=O)[C@H](C)[C@@H](O[C@H]2C[C@@](C)(OC)[C@@H](O)[C@H](C)O2)[C@H](C)[C@@H](O[C@@H]2O[C@H](C)C[C@H](N(C)C)[C@H]2O)[C@](C)(OC)C[C@@H](C)C(=O)[C@H](C)[C@@H](O)[C@]1(C)O [Clarithromycin] + CN[C@H](CC(C)C)C(=O)N[C@H]1C(=O)N[C@@H](CC(N)=O)C(=O)N[C@H]2C(=O)N[C@H]3C(=O)N[C@H](C(=O)N[C@H](C(=O)O)c4cc(O)cc(O)c4-c4cc3ccc4O)[C@H](O)c3ccc(c(Cl)c3)Oc3cc2cc(c3O[C@@H]2O[C@H](CO)[C@@H](O)[C@H](O)[C@H]2O[C@H]2C[C@](C)(N)[C@H](O)[C@H](C)O2)Oc2ccc(cc2Cl)[C@H]1O [Vancomycin]
fitness, S. pneumoniae D39V [1], one replicate
Conditions | first compound 0.007812 µg/mL | first compound 0.01562 µg/mL | first compound 0.03125 µg/mL
partner 0.125 µg/mL | 0.835 | 0.803 | 0.699
partner 0.25 µg/mL | 0.333 | 0.0993 | 0.126
partner 0.5 µg/mL | 0.0664 | 0.0774 | 0.0781

fitness, S. pneumoniae D39V [1]
Conditions | first compound 0.0625 µg/mL | first compound 0.07 µg/mL | first compound 0.125 µg/mL | first compound 0.14 µg/mL | first compound 0.25 µg/mL | first compound 0.28 µg/mL
partner 0.03125 µg/mL | 0.652 | – | 0.381 | – | 0.149 | –
partner 0.0625 µg/mL | 0.577 | – | 0.321 | – | 0.116 | –
partner 0.125 µg/mL | – | 0.101 | 0.281 | 0.0727 | 0.106 | 0.0814
partner 0.25 µg/mL | – | 0.0516 | – | 0.0525 | – | 0.0738
partner 0.5 µg/mL | – | 0.0749 | – | 0.0887 | – | 0.0893

Conditions | Bliss interaction score
B. subtilis 168 | 0.038
S. aureus DSM 20231 | 0.054
S. aureus Newman | 0.0579
S. pneumoniae D39V [2] | -0.0529
